Laboratory results as given in patent US8563567B2, “Substituted heterocyclic compounds” (ArQule, Inc., priority 2009, dated 2013).

Key:
FGFR2 (N549H) = biological target: T1, FGFR2 (N549H) (Homo sapiens, UniProt P21802, N549H); assay: FGFR2 kinase activity assay (fluorescent ELISA); type: biochemical
T1 construct: purchased Millipore 14-742
Description: The enzymatic assays described herein are conducted according to the following procedures from commercially available reagents. In one, non limiting, example, a fluorescent ELISA assay is used to identify and characterize inhibitors of FGFR2 kinase as described herein. This heterogeneous assay utilizes a biotinylated peptide with a tyrosine motif as a substrate and an anti-phospho-tyrosine antibody to measure phosphorylation of the substrate. The reaction is initiated by adding the test compound, 37 μM Pyk2 substrate (Midwest Biotech, Cat. # MBT2383), 12.5 μM ATP (Roche, Cat. #11 140 965 001) and 0.5 μM FGFR2 enzyme (Millipore, Cat. #14-742) sequentially to a non-binding polypropylene V-well plate. All reagents are in an assay buffer consisting of: 50 mM Tris-HCL, 0.02 mg/ml BSA, 10 mM MgCl2, 0.1 mM Na3VO4, 1 mM EGTA, 75 μM ATP, 0.01% NP-40, 2 mM DTT and 10% glycerol. The reaction is incubated for 60 minutes. As the reaction proceeds, FGFR2 phosphorylates tyrosines in the peptide. The reaction mixture is then moved to a blocked streptavidin-coated Nunc Maxisorb plate (coated with 100 ng streptavidin from Pierce (Cat. #15-124) per well), allowing for the capture of the biotinylated peptide. Peptides are captured for 30 minutes at room temperature, the phosphorylation of peptides continues during this phase. The reaction is stopped by washing the streptavidin-coated plate 6 times with TBST. Phosphorylated peptide is detected by adding anti-phospho-tyrosine antibody (Cell Signaling, Cat. #9411, diluted 1:3000) to the streptavidin-coated plate. Unbound anti-phospho-tyrosine antibody is removed by washing the streptavidin-coated plate 6 times with TBST. Secondary detection is performed using alkaline phosphatase tagged goat anti-mouse antibody (Pierce, Cat. #31320, diluted 1:4000) for one hour. Unbound secondary antibody is removed by washing the streptavidin-coated plate 6 times with TBST. The fluorescent readout is initiated by adding to the streptavidin-coated plate Promega Attophos substrate (Promega, Cat. # S1000, dilution=6 mg/10 ml), which, when dephosphorylated by alkaline phosphatase, emits a fluorescent signal of 595 nm in wavelength when excited by a signal of 400 nm in wavelength. The reading of the 595 nm signal is done on the Perkin Elmer Envision system. Compounds which prevent FGFR2 from phosphorylating the peptide result in a lower fluorescent signal. The 595 nm fluorescent signal is directly proportional to the activity of FGFR2. Thus, the inhibition of FGFR2 by compounds is monitored by the decrease in the 595 nm fluorescent signal.

DLD-1 = assay: MTS assay, DLD-1; type: cell-based; details: Homo sapiens, DLD-1, 72 h
Description: (§1) Cells were maintained at 37° C., 5% CO2 in RPMI media supplemented with 1% fetal bovine serum, penicillin/streptomycin and fungizone (Invitrogen). Cells were seeded into 96-well tissue culture plates at 3000 per well and cultured at 37° C. for 18 h. Test compounds were dissolved and diluted to 300× in DMSO then diluted 1:40 in DMEM. Cells were incubated with test compounds for 72 hours followed by incubation with tetrazolium compound (3-(4,5-dimethylthiazol-2-yl)-5-(3-carboxymethoxyphenyl)-2-(4-sulfophenyl)-2H-tetrazolium, inner salt; MTS) and the electron coupling reagent, phenazine methosulfate (PMS) for 4 hours. […] The ability of compounds to inhibit cell growth in this assay is correlated with the reduction of dehydrogenase enzyme activity found in metabolically active cells. The measurement of the absorbance of the formazan was assessed using an ENVISION™ (Perkin Elmer) microplate reader at 492 nm. The calculated IC50 value is the concentration of the test compound that causes a 50% decrease in the absorbance.

MDA-MB-231 = assay: MTS assay, MDA-MB-231; type: cell-based; details: Homo sapiens, MDA-MB-231, 72 h
Description: as §1

T1 sequence (P21802 22-821 N549H): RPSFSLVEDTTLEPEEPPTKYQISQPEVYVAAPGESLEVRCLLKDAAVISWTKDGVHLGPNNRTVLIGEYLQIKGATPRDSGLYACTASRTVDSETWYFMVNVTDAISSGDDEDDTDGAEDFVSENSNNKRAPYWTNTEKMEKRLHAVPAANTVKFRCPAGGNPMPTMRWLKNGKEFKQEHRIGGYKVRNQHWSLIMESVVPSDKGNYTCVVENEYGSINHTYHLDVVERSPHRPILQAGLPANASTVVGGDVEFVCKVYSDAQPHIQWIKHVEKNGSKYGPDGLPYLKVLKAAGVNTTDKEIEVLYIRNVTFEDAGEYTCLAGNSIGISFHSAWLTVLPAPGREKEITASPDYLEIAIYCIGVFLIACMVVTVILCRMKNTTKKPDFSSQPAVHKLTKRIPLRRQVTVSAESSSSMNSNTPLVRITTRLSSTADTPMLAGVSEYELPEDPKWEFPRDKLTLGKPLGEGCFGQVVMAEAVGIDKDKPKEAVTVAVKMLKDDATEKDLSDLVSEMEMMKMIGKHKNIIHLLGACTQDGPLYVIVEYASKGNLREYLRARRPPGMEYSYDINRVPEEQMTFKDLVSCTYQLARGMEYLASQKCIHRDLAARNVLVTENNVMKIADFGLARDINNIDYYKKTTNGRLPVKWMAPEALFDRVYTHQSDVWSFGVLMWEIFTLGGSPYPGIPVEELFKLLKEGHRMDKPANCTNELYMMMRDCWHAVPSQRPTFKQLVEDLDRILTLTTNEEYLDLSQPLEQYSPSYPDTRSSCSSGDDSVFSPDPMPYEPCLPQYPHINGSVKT

Row | SMILES | inhibition at 30 µM (FGFR2 (N549H)) [%] | inhibition at 10 µM (DLD-1) [%] | inhibition at 10 µM (MDA-MB-231) [%]
1 | CCOC(=O)CNC(=O)N1CCC(CNc2nccc(-c3cn4c5c(cccc35)CCC4)n2)CC1 [Compound 34, ethyl 2-(4-((4-(5,6-dihydro-4H-pyrrolo[3,2,1-ij]quinolin-1-yl)pyrimidin-2-ylamino)methyl)piperidine-1-carboxamido)acetate] | 60 | 65 | 
2 | O=S(=O)(c1ccc(Cl)cc1)N1CCC(CNc2nccc(-c3cn4c5c(cccc35)CCC4)n2)CC1 [Compound 35, N-((1-(4-chlorophenylsulfonyl)piperidin-4-yl)methyl)-4-(5,6-dihydro-4H-pyrrolo[3,2,1-ij]quinolin-1-yl)pyrimidin-2-amine] |  | 97 | 98
3 | CC(C)(C)C(=O)N1CCC(CNc2nccc(-c3cn4c5c(cccc35)CCC4)n2)CC1 [Compound 36, 1-(4-((4-(5,6-dihydro-4H-pyrrolo[3,2,1-ij]quinolin-1-yl)pyrimidin-2-ylamino)methyl)piperidin-1-yl)-2,2-dimethylpropan-1-one] |  | 85 | 
4 | c1cc2c3c(c1)c(-c1ccnc(N[C@H]4CCCNC4)n1)cn3CCC2 [Compound 37, (S)-4-(5,6-dihydro-4H-pyrrolo[3,2,1-ij]quinolin-1-yl)-N-(piperidin-3-yl)pyrimidin-2-amine] | 102 | 83 | 83
5 | COc1ccc(NC(=O)N2CCC(CNc3nccc(-c4cn5c6c(cccc46)CCC5)n3)CC2)cc1 [Compound 38, 4-((4-(5,6-dihydro-4H-pyrrolo[3,2,1-ij]quinolin-1-yl)pyrimidin-2-ylamino)methyl)-N-(4-methoxyphenyl)piperidine-1-carboxamide] | 79 | 97 | 98
6 | O=C(Nc1ccc(-c2ccccc2)cc1)N1CCC(CNc2nccc(-c3cn4c5c(cccc35)CCC4)n2)CC1 [Compound 39, N-(biphenyl-4-yl)-4-((4-(5,6-dihydro-4H-pyrrolo[3,2,1-ij]quinolin-1-yl)pyrimidin-2-ylamino)methyl)piperidine-1-carboxamide] | 71 | 52 | 31
7 | CCOC(=O)c1ccc(NC(=O)N2CCC(CNc3nccc(-c4cn5c6c(cccc46)CCC5)n3)CC2)cc1 [Compound 40, ethyl 4-(4-((4-(5,6-dihydro-4H-pyrrolo[3,2,1-ij]quinolin-1-yl)pyrimidin-2-ylamino)methyl)piperidine-1-carboxamido)benzoate] | 68 | 98 | 99
8 | CCOC(=O)NC(=O)N1CCC(CNc2nccc(-c3cn4c5c(cccc35)CCC4)n2)CC1 [Compound 41, ethyl 4-((4-(5,6-dihydro-4H-pyrrolo[3,2,1-ij]quinolin-1-yl)pyrimidin-2-ylamino)methyl)piperidine-1-carbonylcarbamate] | 68 |  | 33
9 | O=C(Nc1ccccc1)N1CCC(CNc2nccc(-c3cn4c5c(cccc35)CCC4)n2)CC1 [Compound 42, 4-((4-(5,6-dihydro-4H-pyrrolo[3,2,1-ij]quinolin-1-yl)pyrimidin-2-ylamino)methyl)-N-phenylpiperidine-1-carboxamide] | 66 | 97 | 79
10 | CCCNC(=O)N1CCC(CNc2nccc(-c3cn4c5c(cccc35)CCC4)n2)CC1 [Compound 43, 4-((4-(5,6-dihydro-4H-pyrrolo[3,2,1-ij]quinolin-1-yl)pyrimidin-2-ylamino)methyl)-N-propylpiperidine-1-carboxamide] | 65 | 86 | 43
11 | O=C(Nc1ccc(Cl)cc1)N1CCC(CNc2nccc(-c3cn4c5c(cccc35)CCC4)n2)CC1 [Compound 44, N-(4-chlorophenyl)-4-((4-(5,6-dihydro-4H-pyrrolo[3,2,1-ij]quinolin-1-yl)pyrimidin-2-ylamino)methyl)piperidine-1-carboxamide] | 65 | 97 | 84
12 | Cc1ccc(NC(=O)N2CCC(CNc3nccc(-c4cn5c6c(cccc46)CCC5)n3)CC2)cc1 [Compound 45, 4-((4-(5,6-dihydro-4H-pyrrolo[3,2,1-ij]quinolin-1-yl)pyrimidin-2-ylamino)methyl)-N-p-tolylpiperidine-1-carboxamide] | 64 | 94 | 72
13 | CC(C)NC(=O)N1CCC(CNc2nccc(-c3cn4c5c(cccc35)CCC4)n2)CC1 [Compound 46, 4-((4-(5,6-dihydro-4H pyrrolo[3,2,1-ij]quinolin-1-yl)pyrimidin-2-ylamino)methyl)-N-isopropylpiperidine-1-carboxamide] | 61 | 52 | 
14 | O=C(NCc1ccccc1)N1CCC(CNc2nccc(-c3cn4c5c(cccc35)CCC4)n2)CC1 [Compound 47, N-benzyl-4-((4-(5,6-dihydro-4H-pyrrolo[3,2,1-ij]quinolin-1-yl)pyrimidin-2-ylamino)methyl)piperidine-1-carboxamide] | 60 | 98 | 97
15 | CS(=O)(=O)N1CCC(CNc2nccc(-c3cn4c5c(cccc35)CCC4)n2)CC1 [Compound 48, 4-(5,6-dihydro-4H-pyrrolo[3,2,1-ij]quinolin-1-yl)-N-((1-(methylsulfonyl)piperidin-4-yl)methyl)pyrimidin-2-amine] | 59 |  | 
16 | O=C(Nc1cccc(Cl)c1)N1CCC(CNc2nccc(-c3cn4c5c(cccc35)CCC4)n2)CC1 [Compound 49, N-(3-chlorophenyl)-4-((4-(5,6-dihydro-4H-pyrrolo[3,2,1-ij]quinolin-1-yl)pyrimidin-2-ylamino)methyl)piperidine-1-carboxamide] | 58 | 96 | 85
17 | CC(C)(C)NC(=O)N1CCC(CNc2nccc(-c3cn4c5c(cccc35)CCC4)n2)CC1 [Compound 52, N-tert-butyl-4-((4-(5,6-dihydro-4H-pyrrolo[3,2,1-ij]quinolin-1-yl)pyrimidin-2-ylamino)methyl)piperidine-1-carboxamide] | 51 | 55 | 
18 | Cc1nnc(-c2cn3c4c(cccc24)CCC3)o1 [Compound 56, 1-(5-methyl-1,3,4-oxadiazol-2-yl)-5,6-dihydro-4H-pyrrolo[3,2,1-ij]quinoline] |  | 94 | 77
19 | Clc1ccc(-c2nnc(-c3cn4c5c(cccc35)CCC4)o2)cc1 [Compound 63, 1-[5-(4-chlorophenyl)-1,3,4-oxadiazol-2-yl]-5,6-dihydro-4H-pyrrolo[3,2,1-ij]quinoline] |  | 98 | 100
20 | c1cc2c3c(c1)c(-c1nnnn1CC1CCNCC1)cn3CCC2 [Compound 81, 1-[1-(piperidin-4-ylmethyl)-1H-tetrazol-5-yl]-5,6-dihydro-4H-pyrrolo[3,2,1-ij]quinoline] | 91 |  | 
21 | NC1CCC(n2nnnc2-c2cn3c4c(cccc24)CCC3)CC1 (stereo not shown) [Compound 82, 4-[5-(5,6-dihydro-4H-pyrrolo[3,2,1-ij]quinolin-1-yl)-1H-tetrazol-1-yl]cyclohexanamine] | 91 |  | 
22 | c1cc2c3c(c1)c(-c1nnnn1C1CCCNC1)cn3CCC2 (stereo not shown) [Compound 83, 1-(1-piperidin-3-yl-1H-tetrazol-5-yl)-5,6-dihydro-4H-pyrrolo[3,2,1-ij]quinoline] | 84 |  | 
